Source: patent US9718819B2 (Merck Sharp & Dohme Corp., priority 2012, dated 2017)

These molecules were tested against HIV-1 RT wild-type enzyme (Human immunodeficiency virus type 1 group M subtype B (isolate HXB2) (HIV-1), UniProt P04585) (assay: HIV-1 reverse transcriptase inhibitory activity (RT polymerase assay)). Settings: HIV-1 RT wild-type enzyme 83 pM; RNA-dependent DNA polymerase activity; read-out: IC50.
Type: biochemical
Method in brief: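 Biotinylated DNA primer annealed to HCV-derived RNA template (16.6 nM final hybrid), with 2 μM dATP/dGTP/dCTP and 66.6 nM Ru-dUTP, after 30 min compound–enzyme preincubation at room temperature; polymerization 90 min at 37 °C, EDTA quench. Product captured on avidin plates, electrochemiluminescence read; IC50 by four-parameter logistic fit versus DMSO and 1 μM efavirenz controls.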

First: N#Cc1cc(Cl)cc(Oc2c(C(F)(F)F)ncn(Cc3cc(-c4ccc(F)nc4)c(=O)[nH]n3)c2=O)c1 [Example 78, 3-chloro-5-((1-((5-(6-fluoropyridin-3-yl)-6-oxo-1,6-dihydropyridazin-3-yl)methyl)-6-oxo-4-(trifluoromethyl)-1,6-dihydropyrimidin-5-yl)oxy)benzonitrile]
Second: Cc1ccc(-c2cc(Cn3cnc(C(F)(F)F)c(Oc4cc(Cl)cc(C#N)c4)c3=O)n[nH]c2=O)cn1 [Example 83, 3-chloro-5-((1-((5-(6-methylpyridin-3-yl)-6-oxo-1,6-dihydropyridazin-3-yl)methyl)-6-oxo-4-(trifluoromethyl)-1,6-dihydropyrimidin-5-yl)oxy)benzonitrile]
The IC50 of the first is 2.3-fold lower: 6 nM for the first, 14 nM for the second. The first is the more potent here.

Going from `N#Cc1cc(Cl)cc(Oc2c(C(F)(F)F)ncn(Cc3cc(-c4ccncc4)c(=O)[nH]n3)c2=O)c1` [Example 81, 3-chloro-5-((6-oxo-1-((6-oxo-5-(pyridin-4-yl)-1,6-dihydropyridazin-3-yl)methyl)-4-(trifluoromethyl)-1,6-dihydropyrimidin-5-yl)oxy)benzonitrile] to `N#Cc1cc(Cl)cc(Oc2c(C(F)(F)F)ncn(Cc3cc(-c4ccc(Cl)nc4)c(=O)[nH]n3)c2=O)c1` [Example 86, 3-chloro-5-((1-((5-(6-chloropyridin-3-yl)-6-oxo-1,6-dihydropyridazin-3-yl)methyl)-6-oxo-4-(trifluoromethyl)-1,6-dihydropyrimidin-5-yl)oxy)benzonitrile], the IC50 falls from 9 nM to 6 nM (1.5-fold).

First: N#Cc1cc(Cl)cc(Oc2c(C(F)(F)F)ncn(Cc3cc(-c4cncc(F)c4)c(=O)[nH]n3)c2=O)c1 [Example 82, 3-chloro-5-((1-((5-(5-fluoropyridin-3-yl)-6-oxo-1,6-dihydropyridazin-3-yl)methyl)-6-oxo-4-(trifluoromethyl)-1,6-dihydropyrimidin-5-yl)oxy)benzonitrile]
Second: N#Cc1cc(Cl)cc(Oc2c(C(F)(F)F)ncn(Cc3cc(-c4cncc(C#N)c4)c(=O)[nH]n3)c2=O)c1 [Example 84, 5-(6-((5-(3-chloro-5-cyanophenoxy)-6-oxo-4-(trifluoromethyl)pyrimidin-1(6H)-yl)methyl)-3-oxo-2,3-dihydropyridazin-4-yl)nicotinonitrile]
The IC50 of the first is 3.9-fold lower: 7 nM for the first, 27 nM for the second. The first is the more potent here.

`COc1cncc(-c2cc(Cn3cnc(C(F)(F)F)c(Oc4cc(Cl)cc(C#N)c4)c3=O)n[nH]c2=O)c1` [Example 85, 3-chloro-5-((1-((5-(5-methoxypyridin-3-yl)-6-oxo-1,6-dihydropyridazin-3-yl)methyl)-6-oxo-4-(trifluoromethyl)-1,6-dihydropyrimidin-5-yl)oxy)benzonitrile] and `N#Cc1cc(Cl)cc(Oc2c(C(F)(F)F)ncn(Cc3cc(-c4cnc5ccccc5c4)c(=O)[nH]n3)c2=O)c1` [Example 88, 3-chloro-5-((6-oxo-1-((6-oxo-5-(quinolin-3-yl)-1,6-dihydropyridazin-3-yl)methyl)-4-(trifluoromethyl)-1,6-dihydropyrimidin-5-yl)oxy)benzonitrile] are within 1.5-fold of each other in IC50: 14 nM for the first, 17 nM for the second.

Going from `N#Cc1cc(Cl)cc(Oc2c(C(F)(F)F)ncn(Cc3cc(-c4cccnc4F)c(=O)[nH]n3)c2=O)c1` [Example 87, 3-chloro-5-((1-((5-(2-fluoropyridin-3-yl)-6-oxo-1,6-dihydropyridazin-3-yl)methyl)-6-oxo-4-(trifluoromethyl)-1,6-dihydropyrimidin-5-yl)oxy)benzonitrile] to `N#Cc1cc(Cl)cc(Oc2c(C(F)(F)F)ncn(Cc3cc(Br)c(=O)[nH]n3)c2=O)c1` [Example 90, 3-((1-((5-bromo-6-oxo-1,6-dihydropyridazin-3-yl)methyl)-6-oxo-4-(trifluoromethyl)-1,6-dihydropyrimidin-5-yl)oxy)-5-chlorobenzonitrile], the IC50 falls from 18 nM to 6 nM (3-fold). The second is the more potent here.

For `N#Cc1cc(Cl)cc(Oc2c(C(F)(F)F)ncn(Cc3cc(-c4ccc(C(N)C(F)(F)F)cc4)c(=O)[nH]n3)c2=O)c1` (centres unmarked) [Example 89, 3-((1-((5-(4-(1-amino-2,2,2-trifluoroethyl)phenyl)-6-oxo-1,6-dihydropyridazin-3-yl)methyl)-6-oxo-4-(trifluoromethyl)-1,6-dihydropyrimidin-5-yl)oxy)-5-chlorobenzonitrile], the IC50 was 18 nM.
